In patent publication US9936701B2, “Herbicidal compounds” (Syngenta Participations AG, priority 2013, dated 2018):

Columns and labels:
[1] = tested on: a variety of test species; assay: Post-emergence herbicidal activity (glasshouse, sprayed after 8 days cultivation, evaluated after 13 days); assay type: in vivo; design: key: 5=total damage to plant; 0=no damage to plant; details: rate 1000 g/Ha, scale 0-5
Method in brief: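 Damage was rated 0-5 (5 = total) 13 days after a post-emergence spray of acetone/water (50:50) plus 0.5% Tween 20 formulation. Plants were sprayed at 8 days' growth and kept at 24/16° C, 14 h light, 65% humidity, watered twice daily.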

[2] = tested on: a variety of test species; assay: Pre-emergence herbicidal activity (glasshouse, sprayed one day after sowing, evaluated after 13 days); assay type: in vivo; design: key: 5=total damage to plant; 0=no damage to plant; details: application pre-emergence, rate 1000 g/Ha, scale 0-5
Method in brief: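 Seeds sown in standard soil in pots, held one day in glasshouse (24/16 °C day/night, 14 h light, 65% humidity), then sprayed with aqueous solution of compound formulated in acetone/water 50:50 with 0.5% Tween 20. Grown on under same conditions, watered twice daily; damage scored after 13 days (0 = none, 5 = total).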

Compound | ABUTH (Abutilon theophrasti) damage score, application post-emergence [1] | ALOMY (Alopecurus myosuroides) damage score, application post-emergence [1] | AMARE (Amaranthus retroflexus) damage score, application post-emergence [1] | ECHCG (Echinochloa crus-galli) damage score, application post-emergence [1] | SETFA (Setaria faberi) damage score, application post-emergence [1] | ZEAMX (Zea mays) damage score, application post-emergence [1] | Pre-emergence herbicidal damage score, ABUTH [2] | Pre-emergence herbicidal damage score, ALOMY [2] | Pre-emergence herbicidal damage score, AMARE [2] | Pre-emergence herbicidal damage score, ECHCG [2] | Pre-emergence herbicidal damage score, SETFA [2] | Pre-emergence herbicidal damage score, ZEAMX [2]
CC#CCOC(=O)OC1C(C)=C(Cl)C(=O)N1c1cc(C(C)(C)C)on1 (stereo not drawn) [A85] | 5 | 5 | 5 | 5 | 5 | 4 | 5 | 4 | 5 | 5 | 5 | 3
COc1ccc(OC(=O)OC2C(C)=C(Cl)C(=O)N2c2cc(C(C)(C)C)on2)cc1 (stereo not drawn) [A86] | 2 | 3 | 5 | 2 | 3 | 0 | 3 | 3 | 5 | 2 | 2 | 1
COc1ccccc1OC(=O)OC1C(C)=C(Cl)C(=O)N1c1cc(C(C)(C)C)on1 (stereo not drawn) [A87] | 2 | 2 | 4 | 3 | 2 | 0 | 2 | 2 | 3 | 1 | 1 | 0
CC1=C(Cl)C(=O)N(c2cc(C(C)(C)C)on2)C1OC(=O)OCC(C)(C)C (stereo not drawn) [A88] | 5 | 5 | 5 | 5 | 5 | 5 | 5 | 4 | 5 | 5 | 5 | 3
CC1=C(Cl)C(=O)N(c2cc(C(C)(C)C)on2)C1OC(=O)c1ccc(C(F)(F)F)nc1 (stereo not drawn) [A90] | 4 | 4 | 5 | 2 | 3 | 1 | 4 | 2 | 5 | 1 | 2 | 1
CC1=C(Cl)C(=O)N(c2cc(C(C)(C)C)on2)C1OC(=O)c1sccc1Cl (stereo not drawn) [A91] | 2 | 2 | 5 | 1 | 1 | 0 | 1 | 2 | 4 | 0 | 0 | 0
CC1=C(Cl)C(=O)N(c2cc(C(C)(C)C)on2)C1OC(=O)c1ccno1 (stereo not drawn) [A92] | 5 | 5 | 5 | 5 | 5 | 1 | 5 | 4 | 5 | 5 | 4 | 3
CCC(=O)OC1C(C)=C(Cl)C(=O)N1c1cc(C(C)(C)C)on1 (stereo not drawn) [A93] | 5 | 5 | 5 | 5 | 5 | 4 | 5 | 4 | 5 | 4 | 5 | 3
CCOC(=O)OC1C(C)=C(Cl)C(=O)N1c1noc(C(C)(C)C)c1C#N (stereo not drawn) [A96] | 5 | 5 | 5 | 5 | 5 | 5 | 5 | 4 | 5 | 5 | 5 | 3
CC1=C(Cl)C(=O)N(c2noc(C(C)(C)C)c2C#N)C1Cl (stereo not drawn) [A97, 5-tert-butyl-3-(2A-dichloro-3-methyl-5-oxo-2H-pyrrol-1-yl)isoxazole-4-carbonitrile] | 5 | 5 | 5 | 5 | 5 | 3 | 5 | 4 | 5 | 4 | 5 | 3
CC1=C(Cl)C(=O)N(c2noc(C(C)(C)C)c2C#N)C1OS(C)(=O)=O (stereo not drawn) [A98] | 5 | 5 | 5 | 5 | 5 | 4 | 5 | 3 | 5 | 5 | 5 | 3
